The target in series [1] is T1, CDK5/p35 (Homo sapiens, UniProt Q00535).
T1 construct: purchased Nanosyn, Inc. (contract assay)
The format is biochemical. As to conditions: 12-point dose response, singlicate, at Km for ATP.

Series [2] in a line: Accumulation potential in plasma, 28-day repeat dose. The format is in vivo, beagle dogs. As to conditions: Dog, 28-day daily oral treatment. The method, then:
Beagle dogs (5/ sex) were dosed once daily for 28 consecutive days via oral gavage. The dose levels were 1, 2.5 and 5 mg/kg/day and administered at a dose volume of 5 mL/kg. Hematology samples (1ml/ time point) were collected in K3EDTA tubes twice pre-test and then on days 7, 14, 21, and 25 during the dosing period and on days 35, and 42 during the recovery period. Complete blood counts were performed and results reported. All studies were conducted utilizing methods and protocols in accordance with IACUC approval at MPI Research (Mattawan, MI).
28-day daily oral treatment
The accumulation ratio (R) was calculated for each animal

Series [3] relates to MMTV-Neu GEMM (Her2/Neu) tumors. As to the kind of experiment: Her2Neu breast cancer GEMM. Format: in vivo, mice. As to conditions: 100 mg/kg in diet, after 21 days of treatment. The method, then:
After 21 days, tumor progression was calculated using the formula: (21 day volume – initial volume)/ initial volume x 100. […] Yellow bar represents duration of treatment. Statistics were completed using linear regression analysis of time during treatment (28 days). Error bars represent SEM. **p≤0.01.
Female MMTV-NEU mice (Jackson Labs Strain 002376) were used to test the efficacy of G1T38 (100 mpk, medicated diet). Drug was incorporated into diet by Research Diets (New Brunswick, NJ) using the following parameters; 25 gm mouse eating 3.2 gm of food/day. Mice were monitored for tumor development by palpating them weekly as per University of North Carolina at Chapel Hill Lineberger Mouse Phase 1 Unit (MP1U) protocol. At time of treatment, body composition was assessed and weight measurements (in grams) were recorded and used as a measure of gross toxicity. Mice were monitored until euthanized at predetermined humane endpoints per approved University of North Carolina at Chapel Hill IACUC protocols.

The nature of series [4]: Cellular potency compared with palbociclib. Format: cell-based.
Series [5] has as its target T2, CDK7/Cyclin H/ Mat1 (Homo sapiens, UniProt P50613).
T2 construct: purchased Nanosyn, Inc. (contract assay)
The format is biochemical. As to conditions: 12-point dose response, singlicate, at Km for ATP.

Molecules are shown by their SMILES.

T1 sequence (Q00535 whole entry): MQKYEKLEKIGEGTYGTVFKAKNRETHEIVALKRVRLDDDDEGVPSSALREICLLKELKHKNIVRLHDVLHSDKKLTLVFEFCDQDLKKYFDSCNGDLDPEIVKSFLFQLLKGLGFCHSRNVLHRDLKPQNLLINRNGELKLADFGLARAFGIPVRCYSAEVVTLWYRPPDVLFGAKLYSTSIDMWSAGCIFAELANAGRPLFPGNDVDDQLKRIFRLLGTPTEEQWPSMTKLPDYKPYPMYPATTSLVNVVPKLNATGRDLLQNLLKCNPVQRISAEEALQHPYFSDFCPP
T1 sequence (Q15078 2-307 partner limits assumed): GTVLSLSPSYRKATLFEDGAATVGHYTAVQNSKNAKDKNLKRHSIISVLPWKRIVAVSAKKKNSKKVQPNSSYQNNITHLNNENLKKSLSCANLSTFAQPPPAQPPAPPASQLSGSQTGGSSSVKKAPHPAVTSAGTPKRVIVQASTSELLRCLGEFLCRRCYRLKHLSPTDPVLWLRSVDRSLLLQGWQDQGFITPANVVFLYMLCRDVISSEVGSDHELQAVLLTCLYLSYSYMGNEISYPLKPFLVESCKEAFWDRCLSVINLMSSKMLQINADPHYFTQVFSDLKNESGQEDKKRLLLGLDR
T2 sequence (P50613 whole entry): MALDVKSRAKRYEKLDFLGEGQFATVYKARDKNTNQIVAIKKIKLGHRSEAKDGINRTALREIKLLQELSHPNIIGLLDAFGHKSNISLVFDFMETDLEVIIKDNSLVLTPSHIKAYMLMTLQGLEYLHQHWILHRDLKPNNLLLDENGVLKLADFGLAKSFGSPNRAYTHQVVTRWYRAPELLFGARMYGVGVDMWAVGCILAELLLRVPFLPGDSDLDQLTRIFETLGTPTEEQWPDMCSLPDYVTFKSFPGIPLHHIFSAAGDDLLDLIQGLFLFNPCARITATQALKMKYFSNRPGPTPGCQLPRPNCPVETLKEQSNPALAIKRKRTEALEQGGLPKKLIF
T2 sequence (P51946 whole entry partner): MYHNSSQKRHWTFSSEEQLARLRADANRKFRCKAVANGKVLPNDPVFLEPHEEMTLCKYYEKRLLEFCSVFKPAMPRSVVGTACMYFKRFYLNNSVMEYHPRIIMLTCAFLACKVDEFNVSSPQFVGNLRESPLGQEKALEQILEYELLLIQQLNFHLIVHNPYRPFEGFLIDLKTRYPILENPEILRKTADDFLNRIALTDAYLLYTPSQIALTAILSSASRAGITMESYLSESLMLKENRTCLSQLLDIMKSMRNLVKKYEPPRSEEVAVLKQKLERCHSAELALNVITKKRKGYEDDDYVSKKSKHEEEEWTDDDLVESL
T2 sequence (P51948 whole entry partner): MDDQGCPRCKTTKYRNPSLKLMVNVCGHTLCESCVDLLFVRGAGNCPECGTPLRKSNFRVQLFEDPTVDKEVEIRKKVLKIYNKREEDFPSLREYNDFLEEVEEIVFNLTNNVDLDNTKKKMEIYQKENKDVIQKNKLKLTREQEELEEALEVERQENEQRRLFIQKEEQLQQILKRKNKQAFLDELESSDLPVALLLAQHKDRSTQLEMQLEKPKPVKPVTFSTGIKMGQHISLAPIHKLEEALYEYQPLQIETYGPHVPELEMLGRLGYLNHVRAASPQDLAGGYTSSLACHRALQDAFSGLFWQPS

For orientation: IC50 means the concentration that gives 50% inhibition. Higher therefore signals a need for much substance. In the case of `CC(C)N1CCN(c2ccc(Nc3ncc4cc5n(c4n3)C3(CCCCC3)CNC5=O)nc2)CC1.Cl.Cl` [G1T38, 2′-((5-(4-isopropylpiperazin-1-yl)pyridin-2-yl)amino)-7′, 8′dihydro-6′Hspiro[cyclohexane1,9′ pyrazino[1′,2′:1,5]pyrrolo[2,3-d]pyrimidin]-6′-one di-hydrochloride], the concentration for half-maximal inhibition (IC50) in series [1] turned out to be 832 nM; in series [5] it was 2400 nM. For the same compound, the “Mean Accumulation Ratio (AUC0-24hr Day 28 ÷ Day 1)” value in series [2] (1 mg/kg) came out at 1.08; in series [2] (2.5 mg/kg) it was 1.3; in series [2] (5 mg/kg) it was 1.14. Also, the tumor regression in series [3] stood at 38%. In series [4], the “cellular EC50 lower than palbociclib” value is given as 2-3 fold.

The values above are taken from paper PMC5522071, “Preclinical development of G1T38: A novel, potent and selective inhibitor of cyclin dependent kinases 4/6 for use as an oral antineoplastic in patients with CDK4/6 sensitive tumors” (Oncotarget, 2017).
